Consider eleven molecules from patent US20120184438A1, “FORMULATIONS” (SYNGENTA CROP PROTECTION, LLC, priority 2009, published 2012).

The first data set in a line: Pesticide (A.I.) solubility in several solvents at 25° C. The format is physicochemical.
Settings: not given
The method, then: A glass vial was approximately one eighth filled with an active ingredient [Al] and then solvent [in this example, Compound Number 1 from Table 1] was added until the vial was approximately one third full. The resultant sample was mixed with a Whirlimixer™ and was then stored at 25° C. The sample was checked every few days; if there was no solid active ingredient present then additional active ingredient was added; if there was no liquid remaining then additional solvent was added. This procedure was repeated until the sample had equilibrated for 4 weeks following the final addition of either active ingredient or solvent. The supernatent liquid layer was then analysed by gas chromatography [except for 4-hydroxy-3-[2-(2-methoxyethoxymethyl)-6-trifluoromethylpyridine-3-carbonyl]-bicyclo[3.2.1]oct-3-en-2-one which was analysed by liquid chromatography] for active ingredient concentration; the results are given in Table 2:
(§1) This Example illustrates that Compound Number 1 is unusually effective at dissolving pesticides given that it has a water solubility which is low.
Take `C[S+](C)[O-]` [DMSO]: the “A.I. Solubility at 25° C., Azoxystrobin” value worked out at 32.1 % w/w and the “A.I. Solubility at 25° C., Cyproconazole” value is 55.5 % w/w.

For the molecule Trimethylbenzene, the “A.I. Solubility at 25° C., Azoxystrobin” value came out at 1.7 % w/w and the “A.I. Solubility at 25° C., Cyproconazole” value stood at 5.8 % w/w.

The next data set is described as follows: Solubility of agrochemical active ingredients in Compound No. 1 (equilibrated 4 weeks at 25° C., supernatant analysed by GC/LC). Format: physicochemical. Conditions: solvent Compound No. 1 (DEET), 4 weeks equilibration. The method, then: The resultant sample was mixed with a Whirlimixer™ and was then stored at 25° C. The sample was checked every few days; if there was no solid active ingredient present then additional active ingredient was added; if there was no liquid remaining then additional solvent was added. This procedure was repeated until the sample had equilibrated for 4 weeks following the final addition of either active ingredient or solvent.
On to `COCCOCc1nc(C(F)(F)F)ccc1C(=O)C1=C(O)C2CCC(C2)C1=O` (stereo not drawn) [4-Hydroxy-3-[2-(2-methoxyethoxymethyl)-6-trifluoromethylpyridine-3-carbonyl]-bicyclo[3.2.1]oct-3-en-2-one], for which the “Solubility in Compound No. 1 at 25° C.” value is 24.7 % w/w.

For `CO/C=C(/C(=O)OC)c1ccccc1Oc1cc(Oc2ccccc2C#N)ncn1` [Azoxystrobin], the “Solubility in Compound No. 1 at 25° C.” value is on record as 11.3 % w/w.

As for `CC(C1CC1)C(O)(Cn1cncn1)c1ccc(Cl)cc1` (stereo not drawn) [Cyproconazole], the “Solubility in Compound No. 1 at 25° C.” value is 33.4 % w/w.

Another data set can be described thus: Aqueous solubility of solvents. The format is physicochemical.
Settings: not given
Text: as §1
For Trimethylbenzene, the Aqueous solubility amounted to 0.1 % w/w.

The same data set, now with this note: solubility of the solvent in water.
The molecule `CC(=O)O[C@@H]1C[C@H]2CC[C@]1(C)C2(C)C` (racemic) [Isobornyl acetate] registered an Aqueous solubility of 0.003 % w/w.

`CCN(CC)C(=O)c1cccc(C)c1` [Compound No. 1] returned an Aqueous solubility of 0.1 % w/w.

`C[S+](C)[O-]` [DMSO] had an Aqueous solubility of 100 % w/w.

Molecule `CC(C)[C@@H]1CC[C@@H](C)CC1=O` [Menthone] gave an Aqueous solubility of 0.030 % w/w.

The molecule `CN1CCCC1=O` [N-Methyl pyrrolidone] yielded an Aqueous solubility of 100 % w/w.

Consider `OCC1CCCO1` (stereo not drawn) [Tetrahydrofurfuryl alcohol], for which the Aqueous solubility is listed as 100 % w/w.

With `CCCCOC(=O)c1ccccc1` [n-Butylbenzoate], the Aqueous solubility is 0.1 % w/w.
